Data published in US20250179059A1 (The Regents of the University of California, priority 2021, published 2025).
pIC50: −log10 of the molar value.

biological target: T1, human BRD4 bromodomain II (Homo sapiens, UniProt O60885); assay: Bromodomain binding assay (AlphaScreen), BRD4 BDII; conditions: AlphaScreen assay, Table C2; read-out: BRD4 BDII IC50
T1 construct: human BRD4 bromodomain II [based on Genbank NM_058243, residues 349-460]; host or cells: E. coli
In short: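 Inhibition of acetyl-H4 peptide binding to human BRD4 bromodomains is measured by bead-based proximity (AlphaScreen) in pH 7.5 HEPES buffer containing 0.05% CHAPS and 0.1% BSA. Ten compound concentrations in 3-fold steps give competitive binding IC50s.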

Compound | pIC50
CC(=O)Nc1ccc(-c2cccc(-c3cc(N4CCN(C(=O)c5ccccc5)CC4)no3)c2O)cc1 [Example 105, N-(3′-(3-(4-Benzoylpiperazin-1-yl)isoxazol-5-yl)-2′-hydroxy-[1,1′-biphenyl]-4-yl)acetamide] | < 7.00
CC(=O)Nc1ccc(-c2cccc(-c3ccc(OC(C)C)cc3)c2O)cc1F [Example 106, N-(3-Fluoro-2′-hydroxy-4″-isopropoxy-[1,1′:3′,1″-terphenyl]-4-yl)acetamide] | < 7.00
CC(=O)Nc1ccc(-c2cccc(-c3cccc(OC(C)C)c3)c2O)cc1F [Example 107, N-(3-Fluoro-2′-hydroxy-3″-isopropoxy-[1,1′:3′,1″-terphenyl]-4-yl)acetamide] | < 7.00
CC(=O)Nc1ccc(-c2cccc(-c3ccc(N4CCNCC4)cc3)c2O)cc1F [Example 108, N-(3-Fluoro-2′-hydroxy-4″-(piperazin-1-yl)-[1,1′:3′,1″-terphenyl]-4-yl)acetamide] | < 7.00
CC(=O)Nc1ccc(-c2cccc(-c3ccc(N)nc3)c2O)cc1F [Example 110, N-(3′-(6-Aminopyridin-3-yl)-3-fluoro-2′-hydroxy-[1,1′-biphenyl]-4-yl)acetamide] | 7.00 to 8.00
CC(=O)Nc1ccc(-c2cccc(-c3ccnc(N)c3)c2O)cc1F [Example 111, N-(3′-(2-Aminopyridin-4-yl)-3-fluoro-2′-hydroxy-[1,1′-biphenyl]-4-yl)acetamide] | 7.00 to 8.00
CC(=O)Nc1ccc(-c2cccc(-c3cnc(N4CCNCC4)o3)c2O)cc1F [Example 112, N-(3-Fluoro-2′-hydroxy-3′-(2-(piperazin-1-yl)oxazol-5-yl)-[1,1′-biphenyl]-4-yl)acetamide] | 7.00 to 8.00
O=C1CCCN1c1ccc(-c2cccc(-c3cc(N4CCNCC4)no3)c2O)cc1F [Example 113, 1-(3-Fluoro-2′-hydroxy-3′-(3-(piperazin-1-yl)isoxazol-5-yl)-[1,1′-biphenyl]-4-yl)pyrrolidin-2-one] | 7.00 to 8.00
CC(=O)Nc1ccc(-c2cccc(-c3cccc(OC4CCC4)c3)c2O)cc1F [Example 114, N-(3″-Cyclobutoxy-3-fluoro-2′-hydroxy-[1,1′:3′,1″-terphenyl]-4-yl)acetamide] | < 7.00
CC(=O)Nc1ccc(-c2cccc(-c3cccc(OC4CCCC4)c3)c2O)cc1F [Example 115, N-(3″-(Cyclopentyloxy)-3-fluoro-2′-hydroxy-[1,1′:3′,1″-terphenyl]-4-yl)acetamide] | < 7.00
CCC(=O)Nc1ccc(-c2cccc(-c3cc(N4CCNCC4)no3)c2O)cc1 [Example 116, N-(2′-Hydroxy-3′-(3-(piperazin-1-yl)isoxazol-5-yl)-[1,1′-biphenyl]-4-yl)propionamide 2,2,2-trifluoroacetate] | < 7.00
CC(=O)Nc1ccc(-c2cccc(-c3ccc(OC4CCC4)cc3)c2O)cc1F [Example 117, N-(4″-Cyclobutoxy-3-fluoro-2′-hydroxy-[1,1′:3′,1″-terphenyl]-4-yl)acetamide] | < 7.00
CC(=O)Nc1ccc(-c2cccc(-c3ccc(OC4CCCC4)cc3)c2O)cc1F [Example 118, N-(4″-(Cyclopentyloxy)-3-fluoro-2′-hydroxy-[1,1′:3′,1″-terphenyl]-4-yl)acetamide] | < 7.00
CC(=O)Nc1ccc(-c2cccc(-c3ccc4occc4c3)c2O)cc1F [Example 119, N-(3′-(Benzofuran-5-yl)-3-fluoro-2′-hydroxy-[1,1′-biphenyl]-4-yl)acetamide] | < 7.00
CC(=O)Nc1ccc(-c2cccc(-c3ccc4ncccc4c3)c2O)cc1F [Example 120, N-(3-Fluoro-2′-hydroxy-3′-(quinolin-6-yl)-[1,1′-biphenyl]-4-yl)acetamide] | 7.00 to 8.00
CC(=O)Nc1ccc(-c2cccc(-c3ccc4c(c3)ncn4C)c2O)cc1F [Example 121, N-(3-Fluoro-2′-hydroxy-3′-(1-methyl-1H-benzo[d]imidazol-5-yl)-[1,1′-biphenyl]-4-yl)acetamide] | < 7.00
CC(=O)Nc1ccc(-c2cccc(-c3ccc4ocnc4c3)c2O)cc1F [Example 122, N-(3′-(Benzo[d]oxazol-5-yl)-3-fluoro-2′-hydroxy-[1,1′-biphenyl]-4-yl)acetamide] | < 7.00
CC(=O)Nc1ccc(-c2cccc(-c3ccc4[nH]ccc4c3)c2O)cc1F [Example 123, N-(3-Fluoro-2′-hydroxy-3′-(1H-indol-5-yl)-[1,1′-biphenyl]-4-yl)acetamide] | < 7.00
CC(=O)Nc1ccc(-c2cccc(-c3cnc4[nH]ccc4c3)c2O)cc1F [Example 124, N-(3-fluoro-2′-hydroxy-3′-(1H-pyrrolo[2,3-b]pyridin-5-yl)-[1,1′-biphenyl]-4-yl)acetamide] | < 7.00
CC(=O)Nc1ccc(-c2cccc(-c3cnc4c(ccn4C)c3)c2O)cc1F [Example 125, N-(3-Fluoro-2′-hydroxy-3′-(1-methyl-1H-pyrrolo[2,3-b]pyridin-5-yl)-[1,1′-biphenyl]-4-yl)acetamide] | < 7.00

Compound | pIC50
CC(=O)Nc1c(F)cc(-c2cccc(-c3cc(N4CCNCC4)no3)c2O)cc1Cl [Example 126, N-(3-Chloro-5-fluoro-2′-hydroxy-3′-(3-(piperazin-1-yl)isoxazol-5-yl)-[1,1′-biphenyl]-4-yl)acetamide 2,2,2-trifluoroacetate] | 7.00 to 8.00
COc1cc(-c2cccc(-c3ccc(NC(C)=O)cc3)c2O)ccc1NC(C)=O [Example 127, N,N′-(2′-Hydroxy-3-methoxy-[1,1′:3′,1″-terphenyl]-4,4″-diyl)diacetamide] | 7.00 to 8.00
COc1cc(-c2cccc(-c3cc(F)c(NC(C)=O)c(F)c3)c2O)ccc1NC(C)=O [Example 128, N,N′-(3,5-Difluoro-2′-hydroxy-3″-methoxy-[1,1′:3′,1″-terphenyl]-4,4″-diyl)diacetamide] | 7.00 to 8.00
COc1cc(-c2cccc(-c3ccc(N4CCCC4=O)c(F)c3)c2O)ccc1NC(C)=O [Example 129, N-(3″-Fluoro-2′-hydroxy-3-methoxy-4″-(2-oxopyrrolidin-1-yl)-[1,1′:3′,1″-terphenyl]-4-yl)acetamide] | 7.00 to 8.00
CC(=O)Nc1ccc(-c2cccc(-c3ccc4c(ccn4C)c3)c2O)cc1F [Example 130, N-(3-Fluoro-2′-hydroxy-3′-(1-methyl-1H-indol-5-yl)-[1,1′-biphenyl]-4-yl)acetamide] | < 7.00
CC(=O)Nc1ccc(-c2cccc(-c3ccc4[nH]cnc4c3)c2O)cc1F [Example 131, N-(3′-(1H-Benzo[d]imidazol-5-yl)-3-fluoro-2′-hydroxy-[1,1′-biphenyl]-4-yl)acetamide] | 7.00 to 8.00
COc1cc(-c2cccc(-c3cc(Cl)c(NC(C)=O)c(Cl)c3)c2O)ccc1NC(C)=O [Example 132, N,N′-(3,5-Dichloro-2′-hydroxy-3″-methoxy-[1,1′:3′,1″-terphenyl]-4,4″-diyl)diacetamide] | 7.00 to 8.00
COc1cc(-c2cccc(-c3cc(F)c(N4CCCC4=O)c(F)c3)c2O)ccc1NC(C)=O [Example 133, N-(3″,5″-Difluoro-2′-hydroxy-3-methoxy-4″-(2-oxopyrrolidin-1-yl)-[1,1′:3′,1″-terphenyl]-4-yl)acetamide] | 7.00 to 8.00
CC(=O)Nc1ccc(-c2cc(F)cc(-c3cnn(C4CCN(C)CC4)c3)c2O)cc1 [Example 134, N-(5′-fluoro-2′-hydroxy-3′-(1-(1-methylpiperidin-4-yl)-1H-pyrazol-4-yl)-[1,1′-biphenyl]-4-yl)acetamide] | < 7.00
CC(=O)Nc1ccc(-c2cccc(-c3ccc4c(c3)CCCO4)c2O)cc1F [Example 136, N-(3′-(chroman-6-yl)-3-fluoro-2′-hydroxy-[1,1′-biphenyl]-4-yl)acetamide] | < 7.00
CC(=O)Nc1ccc(-c2cccc(-c3ccc4c(c3)CCN4)c2O)cc1F [Example 137, N-(3-fluoro-2′-hydroxy-3′-(indolin-5-yl)-[1,1′-biphenyl]-4-yl)acetamide] | < 7.00
CC(=O)Nc1ccc(-c2cccc(-c3ccc(NC(C)=O)c(C(F)(F)F)c3)c2O)cc1F [Example 138, N,N′-(3-fluoro-2′-hydroxy-3″-(trifluoromethyl)-[1,1′:3′,1″-terphenyl]-4,4″-diyl)diacetamide] | < 7.00
CC(=O)Nc1ccc(-c2cccc(-c3cc(C)c(NC(C)=O)c(F)c3)c2O)cc1F [Example 139, N,N′-(3,3″-difluoro-2′-hydroxy-5-methyl-[1,1′:3′,1″-terphenyl]-4,4″-diyl)diacetamide] | < 7.00
O=C1CCCN1c1c(F)cc(-c2cccc(-c3cc(N4CCNCC4)no3)c2O)cc1F [Example 140, 1-(3,5-difluoro-2′-hydroxy-3′-(3-(piperazin-1-yl)isoxazol-5-yl)-[1,1′-biphenyl]-4-yl)pyrrolidin-2-one] | 7.00 to 8.00
COC(=O)Nc1ccc(-c2cccc(-c3cc(N4CCNCC4)no3)c2O)cc1 [Example 141, Methyl (2′-hydroxy-3′-(3-(piperazin-1-yl)isoxazol-5-yl)-[1,1′-biphenyl]-4-yl)carbamate 2,2,2-trifluoroacetate] | < 7.00
CC(=O)Nc1ccc(-c2cccc(-c3ccc4ncncc4c3)c2O)cc1F [Example 142, N-(3-fluoro-2′-hydroxy-3′-(quinazolin-6-yl)-[1,1′-biphenyl]-4-yl)acetamide] | 7.00 to 8.00
CC(=O)Nc1ccc(-c2cccc(-c3cc(N4CCN(S(C)(=O)=O)CC4)no3)c2O)cc1 [Example 143, N-(2′-hydroxy-3′-(3-(4-(methylsulfonyl)piperazin-1-yl)isoxazol-5-yl)-[1,1′-biphenyl]-4-yl)acetamide] | < 7.00
CC(=O)Nc1ccc(-c2cccc(-c3ccc4c(c3)OCCN4C)c2O)cc1F [Example 144, N-(3-fluoro-2′-hydroxy-3′-(4-methyl-3,4-dihydro-2H-benzo[b][1,4]oxazin-7-yl)-[1,1′-biphenyl]-4-yl)acetamide] | < 7.00
CC(=O)Nc1ccc(-c2cccc(-c3ccc4cnccc4c3)c2O)cc1F [Example 145, N-(3-fluoro-2′-hydroxy-3′-(isoquinolin-6-yl)-[1,1′-biphenyl]-4-yl)acetamide] | 7.00 to 8.00
